Laboratory results: ChEMBL document CHEMBL6078612, “Novel strategies based on natural products and synthetic derivatives to overcome resistance in Mycobacterium tuberculosis” (Eur J Med Chem, 2024)
Values after ≈ are worked out from the molar mass of the structure shown.

What was measured:
[1] = system: Mycobacterium tuberculosis; experiment: Antitubercular activity against XDR Mycobacterium tuberculosis; assay type: functional
[2] = Inhibition of Mycobacterium tuberculosis isocitrate lyase
[3] = system: Mycobacterium tuberculosis; experiment: Antimycobacterial activity against Mycobacterium tuberculosis H37Rv assessed as reduction in bacterial cell growth by resazurin reduction method; assay type: functional

Row | Compound | MIC [1] [µg/mL] | IC50 [2] [µM] | MIC [3] [µg/mL]
1 | CC(=O)NC[C@H]1CN(c2ccc(N3CCOCC3)c(F)c2)C(=O)O1 [LINEZOLID] | 0.125 (≈ 0.371 µM) | – | –
2 | O=c1c(O)c(-c2ccc(O)c(O)c2)oc2cc(O)cc(O)c12 [QUERCETIN] | – | 3.57 | –
3 | H-GWLDVAKKIGKAAFNVAKNFI-OH | < 0.97 | – | < 0.98
